Common to all, as to format: functional, cell-based
The test system of test [1] is DU-145. Nature of the test: Cytotoxicity in human DU145 cells assessed as reduction in cell viability incubated for 48 hrs by MTT assay. Conditions: DU-145, 48 h. In general terms: Tetrazolium assays rely on reduction of a dye to a coloured formazan, in cell work by metabolically active cells.
The test system of test [2] is B16-F10. Nature of the test: Cytotoxicity in mouse B16/F10 cells assessed as reduction in cell viability incubated for 48 hrs by MTT assay. The settings on record: B16-F10, 48 h.
The test system of test [3] is A549. In words: Cytotoxicity in human A549 cells assessed as reduction in cell viability incubated for 48 hrs by MTT assay. Conditions: A549, 48 h.
In test [4] the test system is MDA-MB-231. In words: Cytotoxicity in human MDA-MB-231 cells assessed as reduction in cell viability incubated for 48 hrs by MTT assay. The settings on record: MDA-MB-231, 48 h.
Test [5] relates to MCF7. In words: Cytotoxicity in human MCF7 cells assessed as reduction in cell viability incubated for 48 hrs by MTT assay. The settings on record: MCF7, 48 h.

For `O=C(Nc1ccccc1)N(Cc1ccccn1)n1cnnc1`, the IC50 (in general, the concentration needed to halve the response being measured) in test [1] is 20.2 µM; in test [2] it was 23.7 µM; in test [3], 24.9 µM; in test [4], above 50 µM; in test [5], above 50 µM.
For the molecule `COc1ccc(CN(C(=S)Nc2cc(C(F)(F)F)cc(C(F)(F)F)c2)n2cnnc2)cc1OC`, the IC50 in test [1] is 26.4 µM; in test [2], 8.54 µM; in test [3] it was 16.2 µM; in test [4] it was 25.3 µM; in test [5], 15.5 µM.
The matching figures for `COc1ccc(OC)c(CN(C(=S)Nc2ccc(C)cc2)n2cnnc2)c1`: 20.9 µM, 20.7 µM, 17.4 µM, above 50 µM and above 50 µM.
Consider `COc1ccc(CN(C(=O)Nc2ccc(Cl)c(C(F)(F)F)c2)n2cnnc2)cc1OC`, for which the IC50 is above 50 µM in test [1]; above 50 µM in test [2]; 29.3 µM in test [3]; above 50 µM in test [4]; above 50 µM in test [5].
As to `CCc1ccc(NC(=S)N(Cc2ccc(OC)c(OC)c2)n2cnnc2)cc1`, the IC50 in test [1] was above 50 µM; in test [2] it was 22.9 µM; in test [3] it was 28.4 µM; in test [4], above 50 µM; in test [5], above 50 µM.
Regarding `COc1ccc(CN(C(=S)Nc2ccc(C)cc2)n2cnnc2)cc1OC`, the IC50 was 26.3 µM in test [1]; 29.9 µM in test [2]; 22.2 µM in test [3]; above 50 µM in test [4]; above 50 µM in test [5].
Consider `Cc1ccsc1CN(C(=O)Nc1cccc(C#N)c1)n1cnnc1`, for which the IC50 was 31 µM in test [1]; 28.9 µM in test [2]; 26 µM in test [3]; above 50 µM in test [4]; above 50 µM in test [5].
Consider `COc1ccc(CN(C(=O)Nc2ccc(Cl)cc2)n2cnnc2)cc1OC`, for which the IC50 in test [1] was 20.4 µM; in test [2], 42.2 µM; in test [3], 44.2 µM; in test [4], above 50 µM; in test [5] it was above 50 µM.
In the case of `COc1cc(CN(C(=S)Nc2cc(C(F)(F)F)cc(C(F)(F)F)c2)n2cnnc2)cc(OC)c1OC`, the IC50 in test [1] was found to be 23.1 µM; in test [2], 5.62 µM; in test [3], 21 µM; in test [4] it was 24.9 µM; in test [5], 23.8 µM.
Taken in the same sequence, the figures for `COc1ccc(CN(C(=O)Nc2ccc(C#N)cc2)n2cnnc2)cc1OC` were 24.1 µM, above 50 µM, above 50 µM, above 50 µM and above 50 µM.
The matching figures for `Cc1ccc(NC(=O)N(Cc2ccccn2)n2cnnc2)cc1`: 21.5 µM, 35.2 µM, 21.9 µM, 39.5 µM and 38.9 µM.
Taken in the same sequence, the figures for `Cc1ccsc1CN(C(=O)Nc1cccc(Cl)c1)n1cnnc1` were 20.4 µM, above 50 µM, 21.4 µM, 40.3 µM and 31.2 µM.
Consider `CC1CCC(NC(=O)N(Cc2ccccn2)n2cnnc2)CC1` (configuration not stated), for which the IC50 in test [1] came to 20.1 µM; in test [2] it was 39.7 µM; in test [3], 43.7 µM; in test [4], 33.2 µM; in test [5], 34 µM.
As for `CCCCCCCCCNC(=S)N(Cc1cc(OC)ccc1OC)n1cnnc1`, the IC50 in test [1] is above 50 µM; in test [2], 29.4 µM; in test [3] it was above 50 µM; in test [4] it was above 50 µM; in test [5] it was above 50 µM.
With `Cc1ccsc1CN(C(=O)Nc1ccccc1)n1cnnc1`, the IC50 in test [1] was above 50 µM; in test [2], 31.1 µM; in test [3] it was 22.1 µM; in test [4], above 50 µM; in test [5], above 50 µM.
In the case of `COc1ccc(CN(C(=S)Nc2ccc(F)c(Cl)c2)n2cnnc2)cc1OC`, the IC50 amounted to 23.3 µM in test [1]; 20.7 µM in test [2]; 21 µM in test [3]; 27.9 µM in test [4]; 30.1 µM in test [5].
In the case of `COc1ccc(OC)c(CN(C(=S)NC2CCCCC2)n2cnnc2)c1`, the IC50 in test [1] is 29.8 µM; in test [2], 39.5 µM; in test [3] it was 21.5 µM; in test [4], above 50 µM; in test [5], above 50 µM.
As to `CCc1ccc(NC(=S)N(Cc2cc(OC)c(OC)c(OC)c2)n2cnnc2)cc1`, the IC50 in test [1] was 21.4 µM; in test [2], 24.7 µM; in test [3] it was 17.2 µM; in test [4], 24.8 µM; in test [5], 24.8 µM.
As for `COc1cc(CN(C(=O)Nc2ccc(C#N)cc2)n2cnnc2)cc(OC)c1OC`, the IC50 in test [1] was 20.6 µM; in test [2], 21 µM; in test [3], 20.7 µM; in test [4] it was above 50 µM; in test [5], above 50 µM.
As to `O=c1[nH]cc(F)c(=O)[nH]1` [FLUOROURACIL], the 50% inhibitory concentration (IC50) amounted to 39.2 µM in test [1] and 16.7 µM in test [5].
For the molecule `N#Cc1ccc(CN(C(=O)Nc2ccccc2)n2cnnc2)cc1`, the 50% inhibitory concentration (IC50) was above 50 µM in test [1]; 34.7 µM in test [2]; above 50 µM in test [3]; above 50 µM in test [4]; above 50 µM in test [5].
With `O=C(NC1CCCCC1)N(Cc1ccccn1)n1cnnc1`, the IC50 in test [1] is above 50 µM; in test [2], 35.8 µM; in test [3] it was above 50 µM; in test [4] it was 44.1 µM; in test [5] it was 46.9 µM.
For `COc1cc(CN(C(=S)Nc2ccc(C)cc2)n2cnnc2)cc(OC)c1OC`, the IC50 in test [1] was 20.8 µM; in test [2], 46.8 µM; in test [3] it was 22.8 µM; in test [4], above 50 µM; in test [5], above 50 µM.
Take `Cc1ccsc1CN(C(=O)Nc1ccc(Cl)c(C(F)(F)F)c1)n1cnnc1`: the IC50 came to 24.1 µM in test [1]; 22.1 µM in test [2]; 26.2 µM in test [3]; 29.6 µM in test [4]; 30.1 µM in test [5].
With `O=C(NCc1ccccc1)N(Cc1ccccn1)n1cnnc1`, the IC50 was 21.2 µM in test [1]; 31 µM in test [2]; 22 µM in test [3]; above 50 µM in test [4]; above 50 µM in test [5].

For the origin of these results see ChEMBL document CHEMBL4118131, “Synthesis of 1,2,4-triazole-linked urea/thiourea conjugates as cytotoxic and apoptosis inducing agents” (Bioorg Med Chem Lett, 2018).
